This note sets out measurements from ChEMBL document CHEMBL4052831, “The Discovery of N-(1-Methyl-5-(trifluoromethyl)-1H-pyrazol-3-yl)-5-((6- ((methylamino)methyl)pyrimidin-4-yl)oxy)-1H-indole-1-carboxamide (Acrizanib), a VEGFR-2 Inhibitor Specifically Designed for Topical Ocular Delivery, as a Therapy for Neovascular Age-Related Macular Degeneration” (J Med Chem, 2018).

In brackets after ≈: the same amount, converted by molar mass. Activity calls are given as the source filed them. No cut-off for these calls is given here. Where only a bound is given, the exact number is not on record here.

The nature of data set [1]: Cmax in cynomolgus monkey plasma administered 0.5% suspension using 30 uL topical drop to both eyes every 3 hrs for 9 hrs over 5 days and single drop to each eye on day 6 by LC-MS/MS analysis. As to conditions: topical or ocular, 30 uL of 0.5% suspension per eye. The format is ADME, Macaca fascicularis.
The subject of data set [2] is Rattus norvegicus. Description: Antiangiogenic activity in Brown Norway rat laser-induced choroidal neovascularization model assessed as inhibition of neovascularization administered 0.1% solution to both eyes every 3 hrs for 9 hrs by microscopic analysis. The format is functional.
Data set [3] can be described thus: AUC (0 to last) in cynomolgus monkey plasma administered 0.5% suspension using 30 uL topical drop to both eyes as single dose by LC-MS/MS analysis. The class given is ADME, Macaca fascicularis. More on the design: dose 30 uL, route ophthalmic, time 0 - last. As to conditions: topical or ocular, 30 uL of 0.5% suspension per eye.
A short description of data set [4]: Solubility of compound at pH 7.4. The format is physicochemical. As to conditions: buffer.
Data set [5] deals with Proto-oncogene tyrosine-protein kinase receptor Ret (Homo sapiens, UniProt P07949). Description: Inhibition of human RET.
Chain of Proto-oncogene tyrosine-protein kinase receptor Ret (P07949 whole entry): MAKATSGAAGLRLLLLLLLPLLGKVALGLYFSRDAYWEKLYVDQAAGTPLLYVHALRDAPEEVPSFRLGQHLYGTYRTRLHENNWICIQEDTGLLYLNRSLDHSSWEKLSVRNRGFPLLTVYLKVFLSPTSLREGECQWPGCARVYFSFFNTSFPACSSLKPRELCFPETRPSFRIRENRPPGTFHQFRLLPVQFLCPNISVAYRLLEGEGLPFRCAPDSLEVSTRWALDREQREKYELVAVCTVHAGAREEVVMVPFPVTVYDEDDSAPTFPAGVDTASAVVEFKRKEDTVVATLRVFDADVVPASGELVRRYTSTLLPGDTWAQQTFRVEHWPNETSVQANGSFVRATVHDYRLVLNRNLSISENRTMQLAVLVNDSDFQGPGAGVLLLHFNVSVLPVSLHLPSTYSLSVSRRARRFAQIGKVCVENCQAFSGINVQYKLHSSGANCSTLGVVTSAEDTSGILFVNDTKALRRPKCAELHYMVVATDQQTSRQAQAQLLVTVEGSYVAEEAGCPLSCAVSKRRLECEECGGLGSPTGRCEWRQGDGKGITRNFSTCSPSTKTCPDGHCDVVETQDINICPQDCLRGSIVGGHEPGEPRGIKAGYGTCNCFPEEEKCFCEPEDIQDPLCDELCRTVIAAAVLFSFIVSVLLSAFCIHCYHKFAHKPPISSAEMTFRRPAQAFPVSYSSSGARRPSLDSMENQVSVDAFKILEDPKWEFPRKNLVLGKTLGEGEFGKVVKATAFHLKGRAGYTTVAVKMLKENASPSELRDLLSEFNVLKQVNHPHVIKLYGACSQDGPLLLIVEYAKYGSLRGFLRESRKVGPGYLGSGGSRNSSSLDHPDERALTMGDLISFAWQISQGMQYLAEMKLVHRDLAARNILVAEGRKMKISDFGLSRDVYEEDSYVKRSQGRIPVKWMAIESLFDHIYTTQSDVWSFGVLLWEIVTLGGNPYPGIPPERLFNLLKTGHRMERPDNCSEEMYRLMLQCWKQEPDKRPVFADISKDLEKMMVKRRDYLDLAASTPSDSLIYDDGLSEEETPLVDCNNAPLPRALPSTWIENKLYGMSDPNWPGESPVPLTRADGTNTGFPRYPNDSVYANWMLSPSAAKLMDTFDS
For data set [6], the system named is Cynomolgus monkey. Description: Toxicity in cynomolgus monkey anterior region of eye administered 0.5% suspension using 30 uL topical drop to both eyes every 3 hrs for 9 hrs over 5 days by slit lamp biomicroscopic method. Set-up: species or system Macaca fascicularis. As to conditions: in vivo, topical_or_ocular.
A short description of data set [7]: Plasma concentration in cynomolgus monkey administered 0.5% suspension using 30 uL topical drop to both eyes as single dose measured over 24 hrs by LC-MS/MS analysis. The format is ADME, cell-free, Macaca fascicularis. As to conditions: topical or ocular, 30 uL of 0.5% suspension per eye.
Data set [8] can be described thus: AUC (0 to last) in posterior eye cup of Brown Norway rat administered 0.3% suspension using 4 uL topical drop to both eyes every 3 hrs for 9 hrs over 10 days and single drop to each eye on day 11 by LC-MS/MS analysis. The format is ADME. As to conditions: topical or ocular, 4 uL of 0.3% suspension per eye.
A short description of data set [9]: Tmax in cynomolgus monkey plasma administered 0.5% suspension using 30 uL topical drop to both eyes as single dose by LC-MS/MS analysis. The class given is ADME, Macaca fascicularis. Particulars: topical or ocular, 30 uL of 0.5% suspension per eye.
Data set [10] is described as follows: AUC (0 to last) in plasma of Brown Norway rat administered 0.3% suspension using 4 uL topical drop to both eyes as single dose by LC-MS/MS analysis. The format is ADME. As to conditions: topical or ocular, 4 uL of 0.3% suspension per eye. Set-up: dose 4 uL, time 0 - last, route ophthalmic.
The nature of data set [11]: AUC (0 to last) in plasma of Brown Norway rat administered 0.3% suspension using 4 uL topical drop to both eyes every 3 hrs for 9 hrs over 10 days and single drop to each eye on day 11 by LC-MS/MS analysis. The class given is ADME. Particulars: topical or ocular, 4 uL of 0.3% suspension per eye.
Data set [12] can be described thus: AUC (0 to last) in retina of Brown Norway rat administered 0.3% suspension using 4 uL topical drop to both eyes every 3 hrs for 9 hrs over 10 days and single drop to each eye on day 11 by LC-MS/MS analysis. As to conditions: topical or ocular, 4 uL of 0.3% suspension per eye. The class given is ADME.
Data set [13] is described as follows: AUC (0 to last) in posterior eye cup of Brown Norway rat administered 0.3% suspension using 4 uL topical drop to both eyes as single dose by LC-MS/MS analysis. The class given is ADME. Particulars: topical or ocular, 4 uL of 0.3% suspension per eye.
Data set [14] is described as follows: AUC (0 to last) in retina of Brown Norway rat administered 0.3% suspension using 4 uL topical drop to both eyes as single dose by LC-MS/MS analysis. More on the design: dose 4 uL, time 0 - last, route ophthalmic. The format is ADME, tissue-based. Particulars: topical or ocular, 4 uL of 0.3% suspension per eye.
The target of data set [15] is Tyrosine-protein kinase ABL1 (Homo sapiens, UniProt P00519). Description: Inhibition of human ABL.
Chain of Tyrosine-protein kinase ABL1 (P00519 whole entry): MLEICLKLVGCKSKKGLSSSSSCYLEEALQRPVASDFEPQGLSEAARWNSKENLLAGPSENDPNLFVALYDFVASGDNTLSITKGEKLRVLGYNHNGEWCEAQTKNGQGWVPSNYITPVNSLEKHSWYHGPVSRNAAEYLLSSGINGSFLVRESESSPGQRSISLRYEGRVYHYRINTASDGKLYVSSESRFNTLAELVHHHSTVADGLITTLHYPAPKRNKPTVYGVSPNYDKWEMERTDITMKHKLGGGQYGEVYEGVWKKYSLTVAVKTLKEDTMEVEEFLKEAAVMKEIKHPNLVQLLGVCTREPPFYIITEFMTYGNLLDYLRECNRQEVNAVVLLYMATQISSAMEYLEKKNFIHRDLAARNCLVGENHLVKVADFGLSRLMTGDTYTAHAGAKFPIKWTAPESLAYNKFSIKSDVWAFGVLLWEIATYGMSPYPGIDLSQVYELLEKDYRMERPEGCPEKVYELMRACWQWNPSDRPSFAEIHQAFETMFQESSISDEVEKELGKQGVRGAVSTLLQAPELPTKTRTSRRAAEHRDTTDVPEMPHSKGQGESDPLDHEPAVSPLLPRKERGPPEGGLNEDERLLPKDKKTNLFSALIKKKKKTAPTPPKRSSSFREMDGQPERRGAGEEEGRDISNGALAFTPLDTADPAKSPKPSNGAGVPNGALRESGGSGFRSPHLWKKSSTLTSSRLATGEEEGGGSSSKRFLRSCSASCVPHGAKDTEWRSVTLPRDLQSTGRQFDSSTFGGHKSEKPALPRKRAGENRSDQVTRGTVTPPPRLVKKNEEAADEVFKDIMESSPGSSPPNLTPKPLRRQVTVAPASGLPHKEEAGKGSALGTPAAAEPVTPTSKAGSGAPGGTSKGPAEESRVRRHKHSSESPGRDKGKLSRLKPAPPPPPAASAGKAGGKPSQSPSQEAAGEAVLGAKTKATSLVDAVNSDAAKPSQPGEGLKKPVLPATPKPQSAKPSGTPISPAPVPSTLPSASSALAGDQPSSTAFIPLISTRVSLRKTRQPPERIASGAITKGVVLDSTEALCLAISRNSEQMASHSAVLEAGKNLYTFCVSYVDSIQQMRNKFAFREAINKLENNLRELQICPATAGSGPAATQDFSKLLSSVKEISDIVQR
Data set [16] deals with Tyrosine-protein kinase Lyn (Homo sapiens, UniProt P07948). Description: Inhibition of human LYN.
Chain of Tyrosine-protein kinase Lyn (P07948 whole entry): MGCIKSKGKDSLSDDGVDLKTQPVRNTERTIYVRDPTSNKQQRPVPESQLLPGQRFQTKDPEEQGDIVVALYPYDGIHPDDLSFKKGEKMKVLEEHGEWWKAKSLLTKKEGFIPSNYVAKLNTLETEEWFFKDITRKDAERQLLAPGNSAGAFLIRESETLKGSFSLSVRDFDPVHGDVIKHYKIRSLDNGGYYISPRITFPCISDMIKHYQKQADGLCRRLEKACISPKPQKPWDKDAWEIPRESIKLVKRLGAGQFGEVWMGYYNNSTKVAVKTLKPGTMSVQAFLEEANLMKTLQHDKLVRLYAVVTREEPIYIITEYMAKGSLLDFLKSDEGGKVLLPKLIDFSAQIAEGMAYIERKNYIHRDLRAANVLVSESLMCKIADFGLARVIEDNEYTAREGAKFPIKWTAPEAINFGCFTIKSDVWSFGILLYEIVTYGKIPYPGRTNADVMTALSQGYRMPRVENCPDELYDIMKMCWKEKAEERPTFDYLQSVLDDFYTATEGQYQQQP
The nature of data set [17]: Cmax in retina of Brown Norway rat administered 0.3% suspension using 4 uL topical drop to both eyes as single dose by LC-MS/MS analysis. More on the design: dose 4 uL, route ophthalmic. The class given is ADME, tissue-based. Particulars: topical or ocular, 4 uL of 0.3% suspension per eye.
Data set [18] is described as follows: Cmax in posterior eye cup of Brown Norway rat administered 0.3% suspension using 4 uL topical drop to both eyes as single dose by LC-MS/MS analysis. The format is ADME. As to conditions: topical or ocular, 4 uL of 0.3% suspension per eye.
Data set [19] deals with Platelet-derived growth factor receptor alpha (Homo sapiens, UniProt P16234). Description: Inhibition of human PDGFRalpha.
Chain of Platelet-derived growth factor receptor alpha (P16234 whole entry): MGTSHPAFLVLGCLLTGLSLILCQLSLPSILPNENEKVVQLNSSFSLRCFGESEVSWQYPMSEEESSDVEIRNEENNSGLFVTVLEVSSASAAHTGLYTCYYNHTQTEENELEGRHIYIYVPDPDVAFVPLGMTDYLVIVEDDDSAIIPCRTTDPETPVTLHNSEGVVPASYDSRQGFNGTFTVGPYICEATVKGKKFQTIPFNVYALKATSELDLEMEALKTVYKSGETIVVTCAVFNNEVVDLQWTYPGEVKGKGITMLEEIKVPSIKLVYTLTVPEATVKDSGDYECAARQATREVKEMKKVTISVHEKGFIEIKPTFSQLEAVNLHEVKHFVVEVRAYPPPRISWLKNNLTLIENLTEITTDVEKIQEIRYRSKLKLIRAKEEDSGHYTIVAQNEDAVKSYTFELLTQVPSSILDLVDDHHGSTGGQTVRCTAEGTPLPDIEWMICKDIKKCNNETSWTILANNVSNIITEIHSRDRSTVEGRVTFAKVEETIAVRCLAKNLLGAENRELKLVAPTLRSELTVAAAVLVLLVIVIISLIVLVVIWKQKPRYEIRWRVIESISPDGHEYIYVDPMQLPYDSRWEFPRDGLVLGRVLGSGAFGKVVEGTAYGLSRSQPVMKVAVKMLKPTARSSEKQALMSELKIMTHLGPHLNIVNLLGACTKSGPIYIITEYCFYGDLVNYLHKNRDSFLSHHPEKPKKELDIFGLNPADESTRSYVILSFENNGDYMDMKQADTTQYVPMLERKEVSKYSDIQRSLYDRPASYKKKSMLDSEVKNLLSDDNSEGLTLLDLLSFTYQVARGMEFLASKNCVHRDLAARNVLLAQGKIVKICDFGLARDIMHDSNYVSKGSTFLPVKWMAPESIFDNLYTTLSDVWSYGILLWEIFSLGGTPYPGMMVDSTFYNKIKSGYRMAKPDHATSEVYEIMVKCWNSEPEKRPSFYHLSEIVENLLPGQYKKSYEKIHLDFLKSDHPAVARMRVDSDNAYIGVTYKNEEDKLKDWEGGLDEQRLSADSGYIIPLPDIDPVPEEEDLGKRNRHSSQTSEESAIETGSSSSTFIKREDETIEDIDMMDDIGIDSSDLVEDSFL
In data set [20] the test system is Cynomolgus monkey. Description: Toxicity in cynomolgus monkey ocular fundus administered 0.5% suspension using 30 uL topical drop to both eyes every 3 hrs for 9 hrs over 5 days by indirect ophthalmoscopic method. Set-up: species or system Macaca fascicularis. As to conditions: in vivo, topical_or_ocular.
The nature of data set [21]: Cmax in cynomolgus monkey plasma administered 0.5% suspension using 30 uL topical drop to both eyes as single dose by LC-MS/MS analysis. The format is ADME, Macaca fascicularis. Set-up: dose 30 uL, route ophthalmic. As to conditions: topical or ocular, 30 uL of 0.5% suspension per eye.
Data set [22] in a line: AUC (0 to last) in cynomolgus monkey plasma administered 0.5% suspension using 30 uL topical drop to both eyes every 3 hrs for 9 hrs over 5 days and single drop to each eye on day 6 by LC-MS/MS analysis. Particulars: topical or ocular, 30 uL of 0.5% suspension per eye. The format is ADME, Macaca fascicularis.
Data set [23] in a line: Tmax in cynomolgus monkey plasma administered 0.5% suspension using 30 uL topical drop to both eyes every 3 hrs for 9 hrs over 5 days and single drop to each eye on day 6 by LC-MS/MS analysis. The class given is ADME, Macaca fascicularis. Particulars: topical or ocular, 30 uL of 0.5% suspension per eye.
A short description of data set [24]: Cmax in plasma of Brown Norway rat administered 0.3% suspension using 4 uL topical drop to both eyes as single dose by LC-MS/MS analysis. The format is ADME. Set-up: dose 4 uL, route ophthalmic. Particulars: topical or ocular, 4 uL of 0.3% suspension per eye.
Data set [25] can be described thus: Cmax in posterior eye cup of Brown Norway rat administered 0.3% suspension using 4 uL topical drop to both eyes every 3 hrs for 9 hrs over 10 days and single drop to each eye on day 11 by LC-MS/MS analysis. The format is ADME. Particulars: topical or ocular, 4 uL of 0.3% suspension per eye.
The test system of another data set is Plasma. Description: Plasma concentration in cynomolgus monkey administered 0.5% suspension using 30 uL topical drop to both eyes every 3 hrs for 9 hrs over 5 days and single drop to each eye on day 6 by LC-MS/MS analysis. The format is ADME, cell-free, Macaca fascicularis. Particulars: topical_or_ocular.
Data set [26] has as its system Cynomolgus monkey. Description: Toxicity in cynomolgus monkey adnexa region of eye administered 0.5% suspension using 30 uL topical drop to both eyes every 3 hrs for 9 hrs over 5 days by slit lamp biomicroscopic method. Set-up: species or system Macaca fascicularis. Particulars: in vivo, topical_or_ocular.
Data set [27] has as its target Mast/stem cell growth factor receptor Kit (Homo sapiens, UniProt P10721). Description: Inhibition of human KIT.
Data set [28] in a line: Cmax in retina of Brown Norway rat administered 0.3% suspension using 4 uL topical drop to both eyes every 3 hrs for 9 hrs over 10 days and single drop to each eye on day 11 by LC-MS/MS analysis. The class given is ADME. Particulars: topical or ocular, 4 uL of 0.3% suspension per eye.
In data set [29] the test system is Rattus norvegicus. Description: Antiangiogenic activity in Brown Norway rat laser-induced choroidal neovascularization model assessed as inhibition of neovascularization administered 0.09% suspension using 4 uL topical drop to both eyes every 3 hrs for 9 hrs by microscopic analysis. The format is functional.
Data set [30] is described as follows: Cmax in plasma of Brown Norway rat administered 0.3% suspension using 4 uL topical drop to both eyes every 3 hrs for 9 hrs over 10 days and single drop to each eye on day 11 by LC-MS/MS analysis. The format is ADME. Particulars: topical or ocular, 4 uL of 0.3% suspension per eye.
A further data set relates to Mus musculus. Description: Antiangiogenic activity in C57BL/6 mouse laser-induced choroidal neovascularization model assessed as inhibition of neovascularization administered 1% suspension using 3.5 uL topical drop to both eyes every 3 hrs for 9 hrs by microscopic analysis.
The nature of data set [31]: Intrinsic clearance in rat liver microsomes at 1 uM after 5 to 30 mins by LC-MS/MS analysis. The class given is ADME, microsome. As to conditions: read-out: CLH. On the technique in general: Liver microsomes are vesicles of endoplasmic reticulum, rich in cytochrome P450 enzymes.

Chain of Mast/stem cell growth factor receptor Kit (P10721 whole entry): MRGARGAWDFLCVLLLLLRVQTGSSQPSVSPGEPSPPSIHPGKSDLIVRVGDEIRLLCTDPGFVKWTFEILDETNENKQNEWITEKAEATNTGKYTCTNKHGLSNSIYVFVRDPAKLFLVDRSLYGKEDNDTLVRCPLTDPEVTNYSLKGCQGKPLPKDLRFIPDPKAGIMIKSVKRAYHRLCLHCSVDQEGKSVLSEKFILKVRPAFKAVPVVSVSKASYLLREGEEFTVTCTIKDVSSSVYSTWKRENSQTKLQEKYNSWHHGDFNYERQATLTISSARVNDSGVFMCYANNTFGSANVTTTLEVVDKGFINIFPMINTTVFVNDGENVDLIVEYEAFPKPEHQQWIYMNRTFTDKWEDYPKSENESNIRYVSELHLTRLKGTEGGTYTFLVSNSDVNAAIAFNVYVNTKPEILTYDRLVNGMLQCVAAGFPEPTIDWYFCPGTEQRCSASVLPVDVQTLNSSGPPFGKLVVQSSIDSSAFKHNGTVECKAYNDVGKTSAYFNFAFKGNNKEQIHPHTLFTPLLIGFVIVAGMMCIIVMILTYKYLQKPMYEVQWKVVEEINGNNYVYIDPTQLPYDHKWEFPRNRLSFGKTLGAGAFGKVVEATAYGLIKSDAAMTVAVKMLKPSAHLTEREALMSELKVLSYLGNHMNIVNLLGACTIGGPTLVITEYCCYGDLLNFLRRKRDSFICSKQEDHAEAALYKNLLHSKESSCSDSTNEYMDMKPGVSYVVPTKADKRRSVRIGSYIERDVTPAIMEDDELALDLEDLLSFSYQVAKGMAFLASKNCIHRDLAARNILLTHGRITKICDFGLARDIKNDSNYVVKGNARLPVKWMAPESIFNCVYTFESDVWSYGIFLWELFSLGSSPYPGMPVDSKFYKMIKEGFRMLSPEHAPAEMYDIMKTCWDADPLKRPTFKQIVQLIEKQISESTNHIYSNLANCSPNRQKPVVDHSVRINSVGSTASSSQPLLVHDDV

The term Cmax denotes the maximum level reached in the sampled fluid or tissue. One may read the AUC(0-t) as the area under the concentration-time curve up to a stated or last time point. Broadly, the solubility is the dissolved amount per volume that the medium holds. As usually defined, the IC50 is the point on the concentration scale where inhibition reaches its midpoint. By Tmax is commonly meant the time from dosing to the highest level. Consider `CC(=O)N1Cc2ncnc(Oc3ccc4c(ccn4C(=O)Nc4cc(C5CC5)on4)c3)c2C[C@@H]1C`, for which the Cmax in data set [1] came to 228 nM; in data set [17], 150 nM; in data set [18], 2860 nM; in [21], 65.8 nM; in data set [24], 51.6 nM; in data set [25], 4730 nM. In addition, the values for the Cmax in data set [28] and in data set [30] were 138 nM and 78.6 nM, respectively. Moreover, the “inhibition (INH)” value in the data set with Rattus norvegicus [2] is 55%; in the data set on Rattus norvegicus [29], 50%. The AUC(0-t) worked out at 1.07 µM·h in [3]; 29.5 µM·h in data set [8]; 0.449 µM·h in [10]; 0.923 µM·h in [11]; 0.764 µM·h in [12]; 8.97 µM·h in data set [13]. The AUC(0-t) in data set [14] worked out at 0.22 µM·h; in data set [22], 2.51 µM·h. In data set [4], the solubility was 0.6 µM (≈ 0.284 µg/mL). In addition, the IC50 in data set [5], in data set [15], in data set [16], in data set [19] and in data set [27] was less than 500 nM throughout. The Activity result in the data set on Cynomolgus monkey [6], in the data set with Cynomolgus monkey [20] and in the data set on Cynomolgus monkey [26] was “Non-Toxic” throughout. This compound also displayed a concentration at 24 h in [7] of 64 nM. In addition, the Tmax in data set [9] worked out at 11 h; in [23], 3 h. In the data set on Plasma, this compound showed a concentration of 84.4 nM.

With `O=C(Nc1cc(C2(CO)CC2)on1)n1ccc2cc(Oc3ncnc4c3CNC4)ccc21`, in the data set with Mus musculus, the inhibition entry is “inactive”.

Consider `CNCc1cc(Oc2ccc3c(ccn3C(=O)Nc3cc(C(C)C)on3)c2)ncn1`, for which the microsomal CLint at 1 µM in data set [31] is 114 µL/min/mg.

Consider `O=C(Nc1cc(C2CCOCC2)on1)n1ccc2cc(Oc3ncnc4c3CNC4)ccc21`, for which the inhibition entry in the data set on Mus musculus was “inactive”.

Consider `CC(C)(CO)c1cc(NC(=O)n2ccc3cc(Oc4ncnc5c4CNC5)ccc32)no1`, for which the inhibition result in the data set with Mus musculus was “inactive”.

As to `O=C(Nc1cc(C2CC2)on1)n1ccc2cc(Oc3cc(CO)ncn3)ccc21`, in the data set on Mus musculus, the inhibition entry is “inactive”.

Turning to `CNCc1cc(Oc2ccc3c(ccn3C(=O)Nc3cc(C(C)C)[nH]n3)c2)ncn1`, in [31], the microsomal CLint at 1 µM is 52.3 µL/min/mg.

`CNCc1cc(Oc2ccc3c(ccn3C(=O)Nc3cc(C4(C)CC4)on3)c2)ncn1`: the microsomal CLint at 1 µM in data set [31] was 91 µL/min/mg.
